Measurements from patent US20260293949A1, “CARBONATION SENSATION IMPARTING OR ENHANCING AGENT” (TAKASAGO INTERNATIONAL CORPORATION, priority 2022, published 2026).
“Also recorded” adds a separate entry of the source.

Assays:
[1] = Sensory evaluation of carbonation sensation imparting in black tea beverage with fruit juice; assay type: in vivo; details: for Carbonation sensation imparting evaluation result: average score of seven panelists
Procedure: (§1) In the following Examples, the action and effect were verified using a value obtained by calculating an average score of scores for imparting or enhancing fizziness by sensory evaluation conducted by specialized panelists. The expression “1 point” in the evaluation is the evaluation in the case where no component is added at all (no addition).
Diethyl sebacate was separately added to “Afternoon Tea Apple Tea Plus (registered trademark) (manufactured by Kirin Beverage Co., Ltd.)” so as to reach the concentrations shown in Table 9 below, and sensory evaluation was performed by seven specialized panelists to determine the extent to which fizziness was imparted as compared with a control in which diethyl sebacate was not added.

[2] = Sensory evaluation of fizziness enhancement in beer-flavored beverage; assay type: in vivo; details: for Fizziness enhancement evaluation result: beer-flavored beverage, average score of seven panelists, 1 to 5
Procedure: as §1
Diethyl sebacate was separately added to “Asahi Dry Zero (registered trademark) (manufactured by Asahi Breweries, Ltd.)” so as to reach the concentrations shown in Table 8 below, and sensory evaluation was performed by seven specialized panelists to determine the extent to which fizziness was enhanced as compared with a control in which diethyl sebacate was not added.

human TRPA1 = molecular target: T1, human TRPA1 (Homo sapiens, UniProt O75762); assay: Evaluation of human TRPA1 activity in stably expressing cells (Fluo 4-AM calcium fluorescence); assay type: cell-based; details: human TRPA1 stably expressing Flp-In 293 cells; fluorescence 485/525 nm, 27° C.
T1 construct: doxycycline-inducible Flp-In T-REx 293 cells; Fluo-4 calcium assay
T1 sequence (O75762 whole entry): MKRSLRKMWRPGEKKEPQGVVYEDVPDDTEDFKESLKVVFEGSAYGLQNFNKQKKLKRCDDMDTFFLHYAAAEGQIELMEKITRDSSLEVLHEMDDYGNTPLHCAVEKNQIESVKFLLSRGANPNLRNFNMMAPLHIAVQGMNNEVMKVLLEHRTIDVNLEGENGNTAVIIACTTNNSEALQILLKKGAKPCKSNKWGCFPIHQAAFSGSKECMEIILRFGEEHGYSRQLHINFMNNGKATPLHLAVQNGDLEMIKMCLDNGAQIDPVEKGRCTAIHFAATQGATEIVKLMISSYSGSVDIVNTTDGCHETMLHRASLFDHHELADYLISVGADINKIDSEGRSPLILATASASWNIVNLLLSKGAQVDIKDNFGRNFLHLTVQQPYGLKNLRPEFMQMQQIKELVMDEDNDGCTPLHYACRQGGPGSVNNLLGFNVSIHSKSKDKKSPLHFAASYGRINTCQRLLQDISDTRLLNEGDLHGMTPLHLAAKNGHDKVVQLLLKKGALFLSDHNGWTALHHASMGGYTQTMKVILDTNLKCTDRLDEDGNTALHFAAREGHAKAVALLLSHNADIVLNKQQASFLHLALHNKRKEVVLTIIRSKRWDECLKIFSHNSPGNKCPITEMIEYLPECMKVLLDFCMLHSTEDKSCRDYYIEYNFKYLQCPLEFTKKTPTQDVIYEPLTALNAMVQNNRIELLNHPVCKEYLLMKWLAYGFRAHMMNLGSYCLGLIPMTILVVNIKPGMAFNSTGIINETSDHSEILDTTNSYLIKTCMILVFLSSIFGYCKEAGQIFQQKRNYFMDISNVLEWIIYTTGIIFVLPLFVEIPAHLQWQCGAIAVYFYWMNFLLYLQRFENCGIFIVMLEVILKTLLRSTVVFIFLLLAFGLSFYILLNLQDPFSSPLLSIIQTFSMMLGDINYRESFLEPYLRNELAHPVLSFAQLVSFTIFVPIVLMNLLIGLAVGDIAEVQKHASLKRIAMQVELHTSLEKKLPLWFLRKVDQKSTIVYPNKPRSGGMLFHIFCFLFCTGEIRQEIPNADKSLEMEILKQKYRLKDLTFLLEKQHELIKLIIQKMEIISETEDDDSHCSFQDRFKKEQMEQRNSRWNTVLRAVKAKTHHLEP
From the text: The full-length human TRPA1 gene (GenBank Accession Number: NM_007332) was amplified from plasmid pFN21AB7348 (manufactured by Kazusa DNA Research Institute), and the full-length human TRPV1 gene (GenBank Accession Number: NM_018727) was amplified from pFN21AE2418 (manufactured by Kazusa DNA Research Institute) using PCR. The obtained PCR product was subcloned into pcDNA5/FRT/TO (manufactured by ThermoFisher Scientific), and then introduced into Flp-In 293 cells (manufactured by Thermo Fisher Scientific) using a Flp-In T-REX system (manufactured by Thermo Fisher Scientific) to prepare a human TRPA1 stably expressing cell line and a human TRPV1 stably expressing cell line […]
After replacing the culture medium with buffer solution, fluorescent calcium indicator Fluo 4-AM (manufactured by Dojindo Laboratories) was added and incubated at 37° C. for 1 hour. After replacing the culture solution with buffer solution again, the microplate was set to a fluorescence microplate reader FlexStation 3 (manufactured by Molecular Devices, LLC.). Diethyl sebacate was added at various concentrations at an internal temperature of 27° C., and the fluorescence intensity at a wavelength of 525 nm when excited at a wavelength of 485 nm was measured. […]

[3] = Sensory evaluation of carbonation sensation imparting in grape-flavored mouthwash; assay type: in vivo; details: for Carbonation sensation imparting evaluation result: grape-flavored mouthwash, average score of five panelists, 1 to 5
Procedure: as §1
Diethyl sebacate was separately added to grape-flavored mouthwash prepared according to the formulation shown in Table 18 so as to reach a concentration shown in Table 19 below, and sensory evaluation was performed by five panelists to determine the extent to which fizziness was imparted as compared with a control in which diethyl sebacate was not added.

[4] = carbonated beer-flavored beverage

For `CCOC(=O)CCCCCCCCC(=O)OCC` [Diethyl sebacate, diethyl sebacate], the “amelioration of mouthfeel (in words)” value [1] was “effect of ameliorating the mouthfeel was also confirmed”, the “Carbonation sensation imparting evaluation result” value ([1]; 0.1 ppm, 1 (almost no fizziness) to 5 (extremely imparted)) was 1.1 points and the “Carbonation sensation imparting evaluation result” value ([1]; 0.3 ppm, 1 to 5) was 1.3 points. For the same compound, the “Carbonation sensation imparting evaluation result” value ([1]; 1 ppm, 1 to 5) was 1.9 points, the “Carbonation sensation imparting evaluation result” value ([1]; 5 ppm, 1 to 5) was 2.7 points and the “Carbonation sensation imparting evaluation result” value ([1]; 10 ppm, 1 to 5) was 2.9 points. For the same compound, the “Carbonation sensation imparting evaluation result” value ([1]; 20 ppm, 1 to 5) was 1.7 points, the “Carbonation sensation imparting evaluation result” value ([1]; 50 ppm, 1 to 5) was 1.7 points and the “Carbonation sensation imparting evaluation result” value ([1]; 100 ppm, 1 to 5) was 1.1 points. For the same compound, the “fizziness imparting (in words)” value ([1]; contains no carbon dioxide) was “fizziness can be imparted to a black tea beverage with fruit juice”, the “Fizziness enhancement evaluation result” value ([2]; 0.1 ppm) was 1.1 points and the “Fizziness enhancement evaluation result” value ([2]; 0.3 ppm) was 1.6 points. The “Fizziness enhancement evaluation result” value ([2]; 1 ppm) was 2.7 points, the “Fizziness enhancement evaluation result” value ([2]; 5 ppm) was 2.9 points and the “Fizziness enhancement evaluation result” value ([2]; 10 ppm) was 2.7 points. For the same compound, the “Fizziness enhancement evaluation result” value ([2]; 20 ppm) was 2.7 points, the “Fizziness enhancement evaluation result” value ([2]; 50 ppm) was 1.9 points and the “Fizziness enhancement evaluation result” value ([2]; 100 ppm) was 1.1 points. The “amelioration of mouthfeel (in words)” value [2, 4] was “effect of ameliorating the mouthfeel was also confirmed”, the “fizziness enhancement (in words)” value [2, 4] was “fizziness of the carbonated beer-flavored beverage can be enhanced” and the TRPA1 activity (human TRPA1) was “high TRPA1 activity; also recorded: respond”. For the same compound, the “Carbonation sensation imparting evaluation result” value ([3]; 0.1 ppm) was 1.8 points, the “Carbonation sensation imparting evaluation result” value ([3]; 1 ppm) was 2.2 points and the “Carbonation sensation imparting evaluation result” value ([3]; 5 ppm) was 2.8 points. For the same compound, the “Carbonation sensation imparting evaluation result” value ([3]; 10 ppm) was 3.4 points, the “Carbonation sensation imparting evaluation result” value ([3]; 50 ppm) was 4.0 points and the “Carbonation sensation imparting evaluation result” value ([3]; 100 ppm) was 3.8 points. For the same compound, the “Carbonation sensation imparting evaluation result” value ([3]; 500 ppm) was 3.0 points, the “amelioration of mouthfeel (in words)” value ([3]; mouthwash) was “effect of ameliorating the mouthfeel was also confirmed” and the “fizziness imparting (in words)” value ([3]; mouthwash) was “fizziness can be imparted to the mouthwash”.
